The test system of one data set is H1299 cells. The data set can be described thus: Western blot of LC3B-I/LC3B-II (autophagy), H1299. Type of data set: cell-based, Human. To be noted: 72 h, increasing concentration. As for the experimental part: Western blot analyses of total protein extracts were performed as previously described. Immunodetection was performed using antibodies directed to poly (ADP-ribose) polymerase (PARP; BD Biosciences San Diego, CA, USA), LC3B (Cell Signaling Technology, Danvers, MA), HSP72/73 (Calbiochem, EMD Biosciences, La Jolla, CA), Bcl-2 (SC-509, Santa Cruz Biotechnology Inc, Dallas, TX, USA), Bcl-xL (SC-271121, Santa Cruz Biotechnology Inc), Mcl-1 (SC-12756, Santa Cruz Biotechnology Inc) α-tubulin (Santa Cruz Biotechnology Inc) actin (Sigma-Aldrich, St. Louis, Missouri, USA). Anti-rabbit or anti-mouse immunoglobulin G-horseradish peroxidase-conjugated antibodies (Amersham Biosciences, Freiburg, Germany) were used as secondary antibody. […]
Figure 6 Analysis of autophagosome accumulation in M14 and H1299 cells after treatment with IS20 or IS21. […] Ratio of LC3B-II on LC3B-I levels, after normalization on HSP72/73, Actin or α-Tubulin, is quantified by densitometric analysis. (D) (Upper panels) Representative images and (lower panels) relative quantification of fluorescence microscopic analysis of LC3B puncta positive cells in M14 EGFP-LC3B and H1299 EGFP-LC3B transfected cells, treated with IS20 or IS21 (20 µM for 72h). […] Cells with more than 10 puncta were considered autophagy-positive. p-values were calculated between untreated (Ctrl) and treated cells, * p < 0.05.

A further data set relates to U937 cells. Put plainly: Western blot of LC3B-I/LC3B-II (autophagy), U937. Type of data set: cell-based, Human. The settings on record: 20 µM for 24 h.
Data set [1] in a line: Pharmacokinetics in mouse plasma (LC-MS/MS). Type of data set: in vivo, C57/Bl6 mice. To be noted: mice, intraperitoneal; for Tmax: read-out: time of maximum plasma concentration after injection. The protocol: 184 In vivo experi ments. […]
186 30% PEG400 (Sigma-Al drich) and 60% NaCl. Mice were sacrificed starting from 15 min to 24 h
187 after injection. Blood samples were collected b y cardiac puncture, centri fuged at 3,000 g for 10 min
188 at 4 °C and the obtained plasma was stored at - 80 °C until the analysis performed b y liquid
189 chromatograph y tandem mass spectrometry (LC –MS/MS). Given that the two compounds were
190 singularl y administered to the animals for the pharmacokinetic studies, IS20 was used as internal
191 standard (IS) for IS21 and vice versa. Internal Standard Working Solutions (IS-WS) were prepared
192 by adding appropriate volumes of the stock solutions to 50 mL of 0.1% formic acid (Fluka, Milan,
193 Ital y) in methanol:acetonitrile (50:50, v/v, Sigma -Aldrich), in order to reach a final concentration of
194 50 ng/m L. The solutions were maintained at - 20°C.
195 LC-MS/MS Analysis. 40 µ L of mouse plasma were mixed with 160 µ L o f IS -WS. The mixture was
196 vortex mixed for 1 min and centrifuged at 12,000 g for 10 min at 4 °C. The supernatant was
197 collected and 8 µL were injected into the LC–MS/MS system. The HP LC equipment consists of a
198 Series 200 Micro-LC Pump and a Series 200 autosampler from Perkin Elm er (Norwalk, CT, USA).
199 A triple quadrupole mass spectrometer, AB-Sciex API2000 (Toronto, ON, Canada) was used for
200 detection. The anal yt es were anal yzed using a C18 phase Kinetex column (10 cm x 2.1 mm ID) fro m
201 Phenomenex (Torran ce, CA, USA) packed with core–shell particles of […]. The mobile phases
202 were (A) acetonitrile an d (B) water, both containing 0.1% formic acid, at a flow rate of 0.25 mL /
203 min and were entirel y transferred into the mass spectrometer source. Gradient elution was as
204 follows: increase of the organic phase from 60 to 80% in 0.8 min, then to 90% in the following 1.2
205 min and linearly to 100% in 2 min. Finally, after 3.9 min of 100% , the column was led to the
206 original conditions in 2.5 min to enable equilibration of the column.
207 Both anal ytes were detected in positive ionization with a capillar y voltage of 5500 V, nebulizer gas
208 (air) at 40 psi, turbo gas (nitrogen) at 70 psi and 400 °C. The other ion source parameters were set
209 as follows: curtain gas (CUR) 18 psi; collision gas (CAD) 6 psi; declustering potential (DP) 80 V,
210 entrance potential (EP) 1 2 V.
211 The quantitative data were acquired using Multi Reaction Monitoring (MRM) acquisition mode.
212 Two MRM transitions (precursor ion>fragment ion) were selected for the analytes. For IS20
214 eV while collision cell exit potential (CXP) was at 19 and 8 V for the two transitions, respectively.
216 and 51 eV while collision cell exit potential (CXP) was at 21 and 6 V for the two transitions,
218 The anal ytical method was validated according to FDA guidelines for bioanalytical method
219 validation. Linearity, recover y, matrix effect, precision, accurac y, limits of detection (LODs) and
220 lower limits of quantification (LLOQs) were evaluated.
221 Calibration standard solutions were prepared in blank plasma b y spiking 25 µL of a standard
222 mixture at appropriate concentration to 40 µL of plasma and by adding 140 µL of methanol:
223 acetonitrile (50:50, v/v). Calibrators were then treated similarly to the animal samples. The
224 calibration range was 5 to 7500 ng/ mL and the calibrators were prepared at nine level of
225 concentration. Precision, recover y and accurac y w ere ev aluated at three lev el of concentrations (25,
226 […]) and resulted within the acceptable limits.
227 The limit of detection (LOD) was defined as the lowest concentration with a signal- to-noise (S/N)
228 ratio greater than 3. The limit of quantification (LOQ) was defined as the concentration at which
229 both precision (RSD%) and accurac y were less than 20%. LOQ resulted to be 2 ng/ mL while LOD
231 The validated method was then successfully applied in measuring IS20 and IS21 following drug […]

[2] abbreviates: C57/Bl6, mouse, plasma, ip, 100 mg/kg.

Like-named read-outs stand apart in the source and are kept apart here.

For the molecule `CCCCCOc1ccc(C2/C(=C(\O)c3ccc4c(c3)CC(C)O4)C(=O)C(=O)N2c2nnc(SCc3ccc(Cl)cc3)s2)cc1OCC` (centres unmarked) [IS21], the “ratio of LC3B-II on LC3B-I protein levels, H1299” value with H1299 cells is listed as “higher level”. For the same molecule, the “ratio of LC3B-II on LC3B-I, U937” value with U937 cells is given as “Increased ratio”. Besides, in data set [1] (C57/Bl6, mouse, ip, 50 mg/kg, plasma), the concentration peaked (Cmax) at 4.1 µM. In addition, in data set [1] (C57/Bl6, mouse, ip, 50 mg/kg, plasma, read-out: mean AUCtot), the AUC amounted to 40.9 µM·h. In data set [1] (C57/Bl6, mouse, ip, 50 mg/kg, plasma, read-out: mean t½ (converted)), the half-life is 11 h. The Tmax was 2 h in data set [1] (C57/Bl6, mouse, plasma, ip, 50 mg/kg) and 4 h in data set [1] (setting [2]). For the same molecule, the mean total clearance in data set [1] (50 mg/kg) was determined as 26.3 mL/min/kg.
For the molecule `CCCCOc1ccc(C2/C(=C(\O)c3ccc4c(c3)CC(C)O4)C(=O)C(=O)N2c2nnc(SCc3ccc(Cl)cc3)s2)cc1OCC` (centres unmarked) [IS20], the “ratio of LC3B-II on LC3B-I protein levels, H1299” value with H1299 cells was “higher level”. For the same molecule, in the data set on U937 cells, the “ratio of LC3B-II on LC3B-I, U937” value is “Increased ratio”. In addition, the Tmax in data set [1] (setting [2]) was 16 h.

For the origin of these results see PMC8899577, “Targeting the anti-apoptotic Bcl-2 family proteins: machine learning virtual screening and biological evaluation of new small molecules” (Theranostics, 2022).
